We go through two substances from patent US20240158442A1, “MULTIFUNCTIONAL POLYPEPTIDE AND APPLICATION THEREOF IN FIELD OF MEDICINES” (Wuhan Innerse Pharmaceutical Inc., priority 2021, published 2024).

Square brackets hold non-standard residues; d marks the D form. Ends that are not written are not given here. βAla = NCCC(=O)O

Series [1] has as its system rats with cerebral ischemia (middle cerebral artery occlusion, MCAO). The experiment in a line: MCAO rat model of cerebral ischemia, behavioral observation and scoring (Example 5). Format: in vivo, SD rats. Particulars: 3 mg/kg via tail vein; for behavioral score, rat No. 1: individual animal No. 1; for behavioral score, rat No. 2: individual animal No. 2; for behavioral score, rat No. 3: individual animal No. 3; for behavioral score, rat No. 4: individual animal No. 4; for behavioral score, rat No. 5: individual animal No. 5; for behavioral score, rat No. 6: individual animal No. 6; for behavioral score, mean value: scored 22-24 h after suturation, scale 0-5, 6 rats per group. On the procedure:
(§1) In order to determine the application of the synthetic peptides provided by the present invention in neurological diseases, the present invention uses SD rats as experimental objects, and performs middle cerebral artery occlusion method (MCAO) to prepare rat model of cerebral ischemia. These rats were injected drugs intravenously 1-2 hours after ischemia, and a behavioral observation and scoring was conducted for each animal after 22-24 hours. After the behavioral observation, the experimental rats were euthanized and their brains were removed, cut to sections and stained with TTC for quantitative analysis, and the cerebral infarct volume % was calculated.
(§2) The experimental SD rat was weighed and anesthetized with chloral hydrate. After anesthesia, the limbs of the rat were fixed, and the rat was placed in a supine position, connected to the small-animal monitor, and monitored for important physiological parameters such as body temperature, blood pressure and heart rate, etc. The rat's neck was shaved and disinfected with 75% alcohol cotton ball. A middle incision of about 2 cm length was then made on the neck of the experimental rat, and the submandibular gland of the rat was bluntly separated while avoiding damage to the gland. Then, the left common carotid artery (CCA) of the experimental rat was bluntly separated, and the internal carotid artery (ICA) and external carotid artery (ECA) were carefully separated upward along the CCA. Any damage to vagus nerves was avoided during the separation. The CCA and ICA were clamped respectively with two artery clamps, and the distal end of the ECA was cut off and a silicone suture emboli was inserted into the ECA “port” to the ICA artery clamp, then the artery clamp was quickly loosened and the tip of the suture emboli was put in through the artery clamp quickly before clamping the ICA again. This step was repeated and the suture emboli was put in further until the black mark of the suture emboli reached the bifurcation of the ECA and ICA, and the tip of the suture emboli blocked the middle cerebral artery and then the ECA “port” and the suture emboli was tied tightly using a thread in order to prevent the “escape” of suture emboli or bleeding after the rat waked up. The artery clamps on the CCA and ICA were then loosed and removed to restore the tissue to its original position, and an appropriate amount of penicillin was applied to prevent wound infection. A medical suture needle with thread was used to suture, and the wound was disinfected using povidone-iodine again after the suturation. The experimental rats were monitored with the small-animal monitor to evaluate if their physiological parameters were normal, and the rats were placed on a small-animal electric blanket to keep their body temperature until they waked up, and placed in animal cages.
(§3) The drug to be tested was prepared as 3 mg/mL solution. The drug was dosed via tail vein 1-2 h after the suturation.
(§4) During the drug administration, the rat was fastened with a fastening device, and the drug to be tested was injected into the tail vein of the rat at 3 mg/kg using 1 mL syringe, the drug was injected slowly to reduce the cardiopulmonary load of the experimental rat.
(§5) The animals were divided into different test groups, with 6 rats for each group. Model group: After the suturation, an equal amount of normal saline was given via tail vein; Drug groups S1 (NA1), S4 (β-Ala-His-Lys-Ala-Pro) and S5 (Pro-Ala-Lys-β-Ala-His): administered via tail vein after the suturation;
The behavioral observation and scoring were performed on each animal 22-24h after the suturation.

For series [2] the test system is unchanged. The experiment in a line: MCAO rat model of cerebral ischemia, TTC staining, cerebral infarct volume (Example 5). Particulars: for infarct volume (TTC quantification), mean value: 3 mg/kg via tail vein 1-2 h after suturation, TTC after 22-24 h, 6 rats per group; for infarct volume (TTC quantification), rat No. 1: individual animal No. 1; for infarct volume (TTC quantification), rat No. 2: individual animal No. 2; for infarct volume (TTC quantification), rat No. 3: individual animal No. 3; for infarct volume (TTC quantification), rat No. 4: individual animal No. 4; for infarct volume (TTC quantification), rat No. 5: individual animal No. 5; for infarct volume (TTC quantification), rat No. 6: individual animal No. 6. Format: in vivo, SD rats. On the procedure:
as §1
• Small-animal monitor: VT200 from Rongxianda Technology Co., Ltd., Shenzhen, China. • SD rats: 180-200 g, from China National Institutes for Food and Drug Identification. • Suture emboli: Maiyue Bio (M8507). • TTC staining solution: Yuanye Bio (R24053).
as §2, §3, §4, §5
After the behavioral observation, experimental rats were euthanized and their brains were removed. […]

Series [3] can be described thus: Dose-effect experiment, body weight of MCAO model animals. Particulars: 3 mg/kg i.v.; D 2 = 1 day after surgery.
Experimental: Measurement time: the body weight was measured at least twice during the accommodation, and each batch of rats were weighed once on the day before the surgery and on the day of dissection to calculate the amount of drug administered and the anesthetic applied; the body weight was measured twice a week after the surgery.
The effect of test substance on the weight of model animals: cerebral ischemia-reperfusion is an acute injury model, wherein the weight of experimental animals will drop dramatically after MCAO modeling. Thus, the weight of experimental animals is one of the most basic sensitive parameters to comprehensively reflect the health status of animals.
The subject of series [4] is experimental cerebral ischemia-reperfusion in animals (cynomolgus monkeys). Particulars: preclinical ischemic stroke model; cited from earlier work.
Series [5] relates to patients with acute ischemic stroke (AIS) undergoing endovascular thrombectomy. The conditions noted are these: intravenous injection 2.6 mg/kg; cited from earlier work.
Series [6] relates to rat cerebral ischemic stroke (MCAO, reperfusion 120 min after ischemia). As to the kind of experiment: Dose-effect experiment, suture-embolized MCAO ischemia-reperfusion model, TTC staining, cerebral infarction size (Example 6). Format: in vivo, Sprague-Dawley (SD) rats. The conditions noted are these: for Infarct size (infarct tissue weight as percentage of whole brain weight): model control 24.84 ± 3.39.
Text: Preparation method: an amount of test substance was weighted and fully dissolved using water for injection to the required concentration, and was filtered with a 0.22 μm filter to sterilize.
Animal strain: Sprague-Dawley (SD) rats; grade: SPF grade. Body weight: 200.01-240.03 g when the accommodation started, 213.79-278.79 g when grouping. Age: about 5-7 weeks old during the accommodation, and 6-8 weeks old when grouping. Source: SPF (Beijing) Biotechnology Co., Ltd., Beijing, China.
A. Isolating and exposing blood vessels: the skin of the surgical area was shaved, and the rat was placed under a surgical microscope. The skin of the rat was cut along the midline with ophthalmic scissors, with a cut of about 2 cm length. Through the right neck of the rat, the muscle tissue of the right neck was bluntly isolated and opened with a microforcep to expose the right common carotid artery (CCA), and then isolated upward along the common carotid artery to further expose the external carotid artery (ECA) and internal carotid artery (ICA);
B. The ECA was ligated and the ICA was temporarily clamped; the proximal end and distal end of CCA were threaded separately, the distal end was tied tightly and the proximal end was tied with a loose knot, and a small incision was made between the two threads;
Inserting the suture emboli: A No. 4-0 suture emboli was inserted through the incision of CCA, pushed slowly and gently into the internal carotid artery, and stopped at the artery clamp of ICA, the pre-set thread was tied tightly (to avoid severe bleeding when pushing the suture emboli), then the artery clamp that blocked the blood flow of ICA was removed, and the suture emboli was immediately pushed into ICA until entering into the cranium. […]
D. Fixing the suture emboli and suturing the incision: if one felt slight resistance when the suture emboli was inserted about 18 mm depth from the bifurcation of the common carotid artery, it means that the tip of the suture emboli has entered into the cerebral anterior artery (ACA), and the side wall of the suture emboli has blocked the opening of the middle cerebral artery; at the moment, the insertion was terminated and the time was recorded. […]

For series [7] the test system is unchanged. The experiment in a line: Dose-effect experiment, MCAO ischemia-reperfusion model, rat neurological function score (NSS). In kind it is in vivo, Sprague-Dawley (SD) rats. Particulars: 3 mg/kg i.v., D 2 = 1 day after surgery, model control 8.62 ± 0.84. How it is done: The establishment of rat model: the rats were placed in an anesthesia induction box filled with 3.0% isoflurane for anesthesia induction. Anesthesia-induced animals were transferred to the operating table, and anesthesia was maintained with 2.0%˜2.5% isoflurane at 200 mL/min using a small-animal gas anesthesia machine, and the eyelid reflex and pain response of the rats were observed. The surgery can be started only after the eyelid reflex response and the pain response on limbs and tail disappeared. […]
• Measurement time: 24 hours before and after modeling; • Animals measured: all the surviving experimental animals planned to be measured; • Measurement method: a motor function test, sensory test, balance test, and reflex and abnormal behavior test were performed on animals, according to the rat neurological function score scale (NSS) for details.
The main purpose of clinical treatment for cerebral infarction is to restore the patient's neurological function as much as possible and to improve the quality of life after stroke. In this experiment, the animals were evaluated with Bederson scoring 1 hour after ischemia to evaluate the ischemia in animals. One day after modeling, the neurobehavioral function of animals was evaluated with NSS scoring scale in order to evaluate the effect of test substance in improving the neurological function of animals.

Setting [8] is: 3 mg/kg i.v. once within 10 min after reperfusion, TTC 24 h after treatment.
The mark [9] stands for this setting: listed as β-Ala-His-Lys-Ala-Pro.

Consider “YGRKKRRQRRRKLSSIESDV [Example S1, nerinetide]”, for which, in series [1], the “behavioral score, rat No. 1” value was determined as 2 points; the “behavioral score, rat No. 2” value is 2 points; the “behavioral score, rat No. 3” value is recorded as 2 points; the “behavioral score, rat No. 4” value was 2 points. In series [1], the “behavioral score, rat No. 5” value was determined as 1 points; the “behavioral score, rat No. 6” value is on record as 3 points; the “behavioral score, mean value” turned out to be 2.0 points. In addition, in series [1] (listed as NA1), the “behavioral score, mean value” came out at 2.0±0.6 points. Also, the “infarct volume (TTC quantification), mean value” (“infarct volume … mean value” for short) in series [2] turned out to be 0.157. The “infarct volume … mean value” in series [2] (listed as NA1) came to 0.157±0.040. Besides, in series [2] (3 mg/kg via tail vein), the “infarct volume (TTC quantification), rat No. 1” value was found to be 0.187; the “infarct volume (TTC quantification), rat No. 2” value was determined as 0.218; the “infarct volume (TTC quantification), rat No. 3” value is recorded as 0.153; the “infarct volume (TTC quantification), rat No. 4” value worked out at 0.145. Also, in series [2] (3 mg/kg via tail vein), the “infarct volume (TTC quantification), rat No. 5” value is given as 0.107 and the “infarct volume (TTC quantification), rat No. 6” value came out at 0.134. The “Weight D 2” value in series [3] is recorded as 203.7 ± 10.94 g. For the same substance, in series [4], the functional prognosis result is listed as “improve the functional prognosis” and the “infarct size of experimental cerebral ischemia-reperfusion” value is on record as “reduce the infarct size”. Besides, the “patient's prognosis” value in series [5] was “improved patient's prognosis”. In addition, in series [6] (setting [8]), the Infarct weight turned out to be 0.24 ± 0.02 g and the “Infarct size (infarct tissue weight as percentage of whole brain weight)” value is 16.74±3.14%. In addition, the “Infarct size (infarct tissue weight as percentage of whole brain weight)” value in series [6] (3 mg/kg i.v. once within 10 min after reperfusion, TTC 24 h after treatment, listed as Positive drug) came to 16.74 ± 3.14 %. In addition, the “Inhibition rate of cerebral infarction” value in series [6] (3 mg/kg i.v., calculated from infarct size versus model control group) is 33%. The “NSS score D 2” value in series [7] (listed as Positive drug) came out at 8.00 ± 0.76. Moreover, in series [7] (listed as positive control), the “NSS score D 2” value turned out to be 8.00±0.76.
Consider “β-Ala-His-Lys-Ala-Pro ([βAla]HKAP) [Example S4]”, for which, in series [1] (compared with S1 (NA1) 3 mg/kg), the “behavioral score, statistical comparison with S1” value is listed as “not statistically different from S1”. In series [1], the “behavioral score, rat No. 1” value is listed as 3 points; the “behavioral score, rat No. 2” value came out at 2 points; the “behavioral score, rat No. 3” value amounted to 3 points; the “behavioral score, rat No. 4” value came to 2 points. In series [1], the “behavioral score, rat No. 5” value is on record as 1 points; the “behavioral score, rat No. 6” value turned out to be 1 points; the “behavioral score, mean value” came to 2.0 points. Further, the “behavioral score, mean value” in series [1] (setting [9]) is on record as 2.0±0.9 points. The “infarct volume … mean value” in series [2] is recorded as 0.155. Besides, the “infarct volume … mean value” in series [2] (setting [9]) is reported as 0.155±0.044. Moreover, the “infarct volume, statistical comparison with S1” value in series [2] (3 mg/kg via tail vein, compared with S1 (NA1) 3 mg/kg) is listed as “not statistically different from S1”. Moreover, in series [2] (3 mg/kg via tail vein), the “infarct volume (TTC quantification), rat No. 1” value came to 0.233; the “infarct volume (TTC quantification), rat No. 2” value is 0.157; the “infarct volume (TTC quantification), rat No. 3” value was determined as 0.137; the “infarct volume (TTC quantification), rat No. 4” value was 0.171. Further, in series [2] (3 mg/kg via tail vein), the “infarct volume (TTC quantification), rat No. 5” value came out at 0.118 and the “infarct volume (TTC quantification), rat No. 6” value came out at 0.116.
